Experimental data: US20210154190A1, “SHP2 INHIBITOR COMPOSITIONS AND METHODS FOR TREATING CANCER” (Revolution Medicines, Inc., priority 2018, published 2021)
Positions count from the first letter of the chain named. pIC50: −log10 of the molar value. Where “and” joins values, the source holds several entries; their conditions need not be identical. Equal entries are not always repeated. Where two headings read alike, the source gives them in different places.

What was measured:
Assay type in all cases: biochemical
human SHP2-FL S189A = target: T1, human SHP2-FL S189A (Homo sapiens, UniProt Q06124, S189A); test: SHP2 allosteric inhibition assay (DiFMUP), S189A
T1 sequence (Q06124 1-593 S189A): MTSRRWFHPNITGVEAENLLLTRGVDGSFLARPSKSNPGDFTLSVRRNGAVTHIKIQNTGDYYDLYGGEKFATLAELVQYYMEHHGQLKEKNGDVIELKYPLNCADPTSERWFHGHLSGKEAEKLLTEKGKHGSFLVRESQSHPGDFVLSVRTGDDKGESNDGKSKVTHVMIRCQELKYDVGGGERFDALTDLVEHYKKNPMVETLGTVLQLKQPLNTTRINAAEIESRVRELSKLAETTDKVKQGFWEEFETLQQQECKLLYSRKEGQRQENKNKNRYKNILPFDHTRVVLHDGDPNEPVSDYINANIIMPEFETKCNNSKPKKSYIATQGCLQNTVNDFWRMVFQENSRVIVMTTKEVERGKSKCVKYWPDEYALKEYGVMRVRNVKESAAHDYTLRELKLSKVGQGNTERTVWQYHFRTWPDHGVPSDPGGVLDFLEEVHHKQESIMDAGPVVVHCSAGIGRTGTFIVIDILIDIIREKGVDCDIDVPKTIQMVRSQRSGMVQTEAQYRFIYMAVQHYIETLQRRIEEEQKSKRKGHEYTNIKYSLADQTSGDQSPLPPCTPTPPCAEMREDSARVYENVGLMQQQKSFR
Description: (§1) Full-length SHP2 is allosterically activated through binding of bis-tyrosyl-phorphorylated peptides to its Src Homology 2 (SH2) domains. The latter activation step leads to the release of the auto-inhibitory interface of SHP2, which in turn renders the SHP2 protein tyrosine phosphatase (PTP) active and available for substrate recognition and reaction catalysis. The catalytic activity of SHP2 was monitored using the surrogate substrate DiFMUP in a prompt fluorescence assay format.
(§2) […] […] 50 μl stop solution (0.1 mM sodium pervanadate) was added to each well, the plate was shaken briefly to mix, and read in endpoint mode on a SpectraMax M5 plate reader (Molecular Devices) using excitation and emission wavelengths of 340 nm and 450 nm. Data was imported into GraphPad Prism. Plots of fluorescence intensity vs. log Molar [compound] were created and modeled with a 3-parameter sigmoidal concentration response equation in order to estimate IC50.
(§3) Reactions were then allowed to proceed for 30 minutes and stopped by the addition of a phosphatase inhibitor, sodium pervanadate. De-phosphorylation of DiFMUP results in production of a fluorescent product. Product fluorescence was determined and plotted as a function of compound concentration in order to determine the IC50 for each compound on each mutant using a four parameter sigmoidal dose response function in Prism (GraphPad).
(§4) NsCs mimics the role of the cytosolic domain of a protein tyrosine kinase in this model system.

human SHP2-FL F285S = target: T2, human SHP2-FL F285S (Homo sapiens, UniProt Q06124, F285S); test: SHP2 allosteric inhibition assay (DiFMUP), F285S
T2 sequence (Q06124 1-593 F285S): T1 sequence (Q06124 1-593 S189A) with A189S, F285S
Description: as §1, §2, §3, §4

human SHP2-FL S502P = target: T3, human SHP2-FL S502P (Homo sapiens, UniProt Q06124, S502P); test: SHP2 allosteric inhibition assay (DiFMUP), S502P
T3 sequence (Q06124 1-593 S502P): T1 sequence (Q06124 1-593 S189A) with A189S, S502P
Description: as §1, §2, §3, §4

SMILES | IC50 (human SHP2-FL S189A; IC50 (nM), SHP2 S189A 0.5 μM NsCs peptide (Activated), human SHP2-FL S189A, 0.5 μM NsCs peptide (activated)) | IC50 (human SHP2-FL S189A; human SHP2-FL S189A alone, no peptide (non-activated), read-out: IC50 (nM), SHP2 S189A No Peptide Control (Non-Activated)) | IC50 (human SHP2-FL S189A; human SHP2-FL S189A alone, no peptide (non-activated), read-out: pIC50, SHP2 S189A No Peptide Control (Non-Activated) (converted)) | pIC50 (human SHP2-FL S189A; pIC50, SHP2 S189A 0.5 μM NsCs peptide (Activated), human SHP2-FL S189A, 0.5 μM NsCs peptide (activated)) | IC50 (human SHP2-FL F285S; IC50 (nM), SHP2 F285S 0.5 μM NsCs peptide (Activated), human SHP2-FL F285S, 0.5 μM NsCs peptide (activated)) | IC50 (human SHP2-FL F285S; human SHP2-FL F285S alone, no peptide (non-activated), read-out: IC50 (nM), SHP2 F285S No Peptide Control (Non-Activated)) | IC50 (human SHP2-FL F285S; human SHP2-FL F285S alone, no peptide (non-activated), read-out: pIC50, SHP2 F285S No Peptide Control (Non-Activated) (converted)) | pIC50 (human SHP2-FL F285S; pIC50, SHP2 F285S 0.5 μM NsCs peptide (Activated), human SHP2-FL F285S, 0.5 μM NsCs peptide (activated)) | IC50 (human SHP2-FL S502P; IC50 (nM), SHP2 S502P 0.5 μM NsCs peptide (Activated), human SHP2-FL S502P in presence of 0.5 μM NsCs peptide (activated)) [nM] | IC50 (human SHP2-FL S502P; human SHP2-FL S502P alone, no peptide (non-activated), read-out: IC50 (nM), SHP2 S502P No Peptide Control (Non-Activated)) | IC50 (human SHP2-FL S502P; human SHP2-FL S502P alone, no peptide (non-activated), read-out: pIC50, SHP2 S502P No Peptide Control (Non-Activated) (converted)) | pIC50 (human SHP2-FL S502P; pIC50, SHP2 S502P 0.5 μM NsCs peptide (Activated), human SHP2-FL S502P in presence of 0.5 μM NsCs peptide (activated)) | Biochemical sensitivity (human SHP2-FL S189A; Variant S189A) | Biochemical sensitivity (human SHP2-FL F285S; Variant F285S) | Biochemical sensitivity (human SHP2-FL S502P; Variant S502P)
Nc1nc(N2CCC3(CCC[C@H]3N)CC2)cnc1Sc1ccnc(Cl)c1Cl [Compound 1] | 3.38 nM and 3.76 nM and 2.99 nM and 3.79 nM | 3.01 nM and 3.35 nM and 2.75 nM and 3.11 nM | 3.02 nM and 3.31 nM and 2.75 nM and 3.09 nM | 8.47 and 8.43 and 8.52 and 8.42 | 3.76 nM and 9.08 nM and 8.38 nM and 15.1 nM | 1.57 nM and 1.55 nM and 1.04 nM and 1.19 nM | 1.55 nM and 1.05 nM and 1.2 nM | 8.43 and 8.04 and 8.08 and 7.82 | > 10000 | 237 nM and 227 nM and 221 nM and 308 nM | 234 nM and 229 nM and 219 nM and 309 nM | < 5.00 | – | – | –
Cc1nc(N2CCC3(CC2)CO[C@@H](C)[C@H]3N)c(CO)nc1-c1cccc(Cl)c1Cl [Compound B] | – | – | – | – | – | – | – | – | – | – | – | – | yes (Sensitive if IC50 < 2000 nM) | yes (Sensitive if IC50 < 2000 nM) | no (Sensitive if IC50 < 2000 nM)
